The target in one assay is IMP-1 (Serratia marcescens, UniProt P52699). In words: Enzyme activity: determination of IC50, fluorescence assay with CCF2-FA substrate. The class given is biochemical. The note with it: enzyme 2 pM, CCF2-FA 1.25 μM, 2 hours at 25° C.; read-out: IMP1 IC50. How it is done: (§1) Enzyme Activity: Determination of IC50
(§2) The Class B enzyme activities were measured in the presence of a compound of the EXAMPLES as a test inhibitor in a fluorescence assay against a commercially available substrate consisting of a cephalosporin core linking 7-hydroxycoumarin to fluorescein (CCF2-FA; Life Technologies, Grand Island, N.Y.). The enzyme (NDM-1, IMP-1 or VIM-1) and the substrate were diluted in 100 mM KH2PO4 buffer (pH 7) containing 0.005% Tween-20 and 10 μM ZnSO4. In the assay, the final concentration of enzyme was 1 pM, 2 pM and 30 pM for NDM-1, IMP-1 and VIM-1, respectively, and the final concentration of CCF2-FA was 1.25 μM. The test inhibitor was dissolved in DMSO and diluted 1:50 in the assay, resulting in a final concentration range of 20 μM to 0.00063 μM. In a 384-well microplate, the test inhibitor was incubated with the metallo-β-lactamase enzyme and the substrate for 2 hours at 25° C. Fluorescence at 460 nm following excitation at 405 nm was measured. The IC50 value was determined from semi-logarithmic plots of enzyme inhibition versus inhibitor concentration, with a curve generated using a 4-parameter fit.

Another assay concerns the target NDM-1 (Klebsiella pneumoniae, UniProt C7C422). The assay is described as above. In kind it is biochemical. Conditions: enzyme 1 pM, CCF2-FA 1.25 μM, 2 hours at 25° C.; read-out: NDM1 IC50. How it is done: as §1, §2
The next assay concerns the target VIM-1 (Pseudomonas aeruginosa, UniProt A0A0F7KYQ8). The assay is described as above. The class given is biochemical. Conditions: enzyme 30 pM, CCF2-FA 1.25 μM, 2 hours at 25° C.; read-out: VIM1 IC50. How it is done:
as §1, §2

Assay [1] relates to Escherichia coli expressing NDM-1 (CLB30016). In words: Antibiotic potentiation activity: synergistic concentration (MITC95) with imipenem, growth by OD600. The class given is cell-based. Conditions: 95% inhibition of bacterial growth, strain CLB30016. As to the method: (§3) Antibiotic Potentiation Activity: Determination of Synergistic Concentration
(§4) The bacterial strains tested included the clinical strains Escherichia coli expressing NDM-1 (CLB30005, CLB30016), Serratia marcescens expressing IMP-1 (CL5741), and Klebsiella pneumoniae expressing VIM-1 (IHMA599644). Inhibitor activity was measured in the presence and absence of imipenem or ceftazidime in a 384-well microplate.
(§5) The clinical strains CLB30016, CL5741, and IHMA599644 were grown on trypticase soy agar containing 5% sheep's blood. The clinical strain CLB30005 was grown on Mueller Hinton broth agar containing 8 μg/ml imipenem. The bacteria on agar plates were incubated overnight at 35° C. with ambient humidity (achieved from an open pan of water inside the incubator). The following day, individual colonies from each clinical strain were picked and resuspended in 5 ml saline to attain an OD600 of 0.14, 0.11, 0.15 and 0.13, for CLB30005, CLB30016, CL5741 and IHMA599644, respectively. These were further diluted 1:100 into 1.1×CAMHB and used to inoculate the test wells as described below.
(§6) Imipenem in 10 mM 3-(N-morpholino)propanesulfonic acid (MOPS, pH 7) was stored in single use aliquots at −80° C. Test inhibitors were dissolved in DMSO and diluted 1:50 in the assay, resulting in a final concentration range of 200 μM to 0.195 μM. On the day of the assay, 4 μl of antibiotic was added to 45 μl of bacteria followed by 1 μl of test compound and mixed by pipetting and with an orbital shaker. The concentration of antibiotic used in the assay was 1 μg/ml or 4 μg/ml. Microplates were covered and incubated at 35° C. for 22 hours to 24 hours. At the end of the incubation, absorbance was determined using a spectrophotometer. The synergistic concentration of MBLI was determined by identifying the lowest concentration of test compound in the presence of a given concentration of antibiotic that was required to inhibit 95% of the growth of the bacteria.
(§7) Representative compounds of the present invention display a synergistic effect. For example, representative compounds of EXAMPLES 1-456 were determined to restore susceptibility to imipenem at concentrations of 200 μM or less.

Assay [2] has as its system Klebsiella pneumoniae expressing VIM-1 (IHMA599644). The assay is described as above. The class given is cell-based. The note with it: 95% inhibition of bacterial growth, strain IHMA599644. As to the method:
as §3, §4, §5, §6, §7

In assay [3] the test system is Serratia marcescens expressing IMP-1 (CL5741). The assay is described as above. The class given is cell-based. Conditions: 95% inhibition of bacterial growth, strain CL5741. As to the method:
as §3, §4, §5, §6, §7

This is an account of results in patent publication US9839642B2, “Beta-tetrazolyl-propionic acids as metallo-beta-lactamase inhibitors” (priority 2014, dated 2017).

Chain of NDM-1 (C7C422 29-270, looked up, species assumed): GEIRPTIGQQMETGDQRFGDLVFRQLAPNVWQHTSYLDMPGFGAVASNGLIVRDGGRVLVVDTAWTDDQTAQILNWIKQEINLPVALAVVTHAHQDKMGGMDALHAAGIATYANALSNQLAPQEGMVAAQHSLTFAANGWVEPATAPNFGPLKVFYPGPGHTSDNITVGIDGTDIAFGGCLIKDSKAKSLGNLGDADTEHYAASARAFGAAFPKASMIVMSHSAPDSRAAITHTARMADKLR
Chain of IMP-1 (P52699 19-246, looked up, species assumed): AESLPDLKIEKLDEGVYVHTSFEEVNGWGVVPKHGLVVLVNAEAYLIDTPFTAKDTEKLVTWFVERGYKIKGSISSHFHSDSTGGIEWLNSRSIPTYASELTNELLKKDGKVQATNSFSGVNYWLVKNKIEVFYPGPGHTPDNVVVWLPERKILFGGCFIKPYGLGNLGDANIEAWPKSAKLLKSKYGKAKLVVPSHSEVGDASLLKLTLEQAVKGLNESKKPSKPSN

By IC50 is commonly meant the concentration at which inhibition is half-maximal. Regarding `CC(C)C[C@H](C(=O)O)[C@H](Cc1ccc(Br)c(F)c1)c1nnn[nH]1` [Example 23, (2S)-2-[(1S)-2-(4-bromo-3-fluorophenyl)-1-(1H-tetrazol-5-yl)ethyl]-4-methylpentanoic acid], the half-inhibitory concentration (IC50) came out at 88 nM at IMP-1, 20 nM at NDM-1 and 1.4 nM at VIM-1. Also, in assay [1], the “NDM1 EC30016 MITC95” value turned out to be 6.3 µM. For the same compound, in assay [2], the “VIM1 KP599644 MITC95” value was 31 µM. For the same compound, the “IMP1 SM5741 MITC95” value in assay [3] turned out to be 3.1 µM.

Turning to `CC(C)C[C@H](C(=O)O)[C@H](Cc1cc(F)cc(Br)c1)c1nnn[nH]1` [Example 24, (2S)-2-[(1S)-2-(3-bromo-5-fluorophenyl)-1-(1H-tetrazol-5-yl)ethyl]-4-methylpentanoic acid], the IC50 amounted to 230 nM on IMP-1, 18 nM on NDM-1 and 0.6 nM at VIM-1. In assay [1], the “NDM1 EC30016 MITC95” value was found to be 9.4 µM. For the same compound, in assay [2], the “VIM1 KP599644 MITC95” value is 12.5 µM. Also, in assay [3], the “IMP1 SM5741 MITC95” value was 4.7 µM.

`CC(C)C[C@H](C(=O)O)[C@H](Cc1ccc(Br)cc1)c1nnn[nH]1` [Example 25, (2S)-2-[(1S)-2-(4-bromophenyl)-1-(1H-tetrazol-5-yl)ethyl]-4-methylpentanoic acid]: the concentration for half-maximal inhibition (IC50) at IMP-1 amounted to 87 nM; at NDM-1, 32 nM; at VIM-1, 2.6 nM. Besides, the “NDM1 EC30016 MITC95” value in assay [1] was 4.7 µM. In addition, the “VIM1 KP599644 MITC95” value in assay [2] is 12.5 µM. For the same compound, in assay [3], the “IMP1 SM5741 MITC95” value is 3.1 µM.

Turning to `CCC[C@H](C(=O)O)[C@H](Cc1ccccc1Br)c1nnn[nH]1` [Example 26, (2S)-2-[(1S)-2-(2-bromophenyl)-1-(1H-tetrazol-5-yl)ethyl]pentanoic acid], the IC50 at IMP-1 came out at 570 nM; on NDM-1 it was 9.9 nM; on VIM-1 it was 2.4 nM. Moreover, the “NDM1 EC30016 MITC95” value in assay [1] is 3.1 µM. Further, the “VIM1 KP599644 MITC95” value in assay [2] is 18.8 µM. The “IMP1 SM5741 MITC95” value in assay [3] was 12.5 µM.

As to `CCC[C@H](C(=O)O)[C@H](Cc1cccc(C#N)c1)c1nn[nH]n1` [Example 41, (2S)-2-[(1S)-2-(3-cyanophenyl)-1-(1H-tetrazol-5-yl)ethyl]pentanoic acid], the IC50 on IMP-1 worked out at 590 nM; on NDM-1, 60 nM; on VIM-1, 0.87 nM. The “NDM1 EC30016 MITC95” value in assay [1] is 18.8 µM. Besides, in assay [2], the “VIM1 KP599644 MITC95” value was 18.8 µM. Also, in assay [3], the “IMP1 SM5741 MITC95” value stood at 37.5 µM.

Regarding `CC(C)C[C@H](C(=O)O)[C@H](Cc1ccc(C#N)cc1)c1nnn[nH]1` [Example 42], the IC50 at IMP-1 turned out to be 190 nM; on NDM-1 it was 74 nM; on VIM-1, 1.4 nM. In addition, the “NDM1 EC30016 MITC95” value in assay [1] came to 18.8 µM. The “VIM1 KP599644 MITC95” value in assay [2] was 37.5 µM. For the same compound, in assay [3], the “IMP1 SM5741 MITC95” value was 12.5 µM.

For `CCC[C@H](C(=O)O)[C@H](Cc1ccccc1C#N)c1nnn[nH]1` [Example 43, (2S)-2-[(1S)-2-(2-cyanophenyl)-1-(1H-tetrazol-5-yl)ethyl]pentanoic acid], the IC50 came to 1600 nM at IMP-1, 22 nM on NDM-1 and 3.2 nM on VIM-1. In assay [1], the “NDM1 EC30016 MITC95” value was 4.7 µM. Moreover, the “VIM1 KP599644 MITC95” value in assay [2] came to 31 µM. The “IMP1 SM5741 MITC95” value in assay [3] worked out at 50 µM.

Regarding `CCC[C@H](C(=O)O)[C@H](Cc1ccc(-c2nnn[nH]2)cc1)c1nn[nH]n1` [Example 44, (S)-2-((S)-2-(4-(1H-tetrazol-5-yl)phenyl)-1-(2H-tetrazol-5-yl)ethyl)pentanoic acid], the values for the IC50 at IMP-1, at NDM-1 and at VIM-1 were 640 nM, 21 nM and 5.5 nM, respectively. Besides, the “NDM1 EC30016 MITC95” value in assay [1] amounted to 150 µM. Besides, the “VIM1 KP599644 MITC95” value in assay [2] was found to be 200 µM. For the same compound, the “IMP1 SM5741 MITC95” value in assay [3] was 18.8 µM.

As to `CCC[C@H](C(=O)O)[C@H](Cc1cccc(C(N)=O)c1)c1nn[nH]n1` [Example 46, (2S)-2-[(1S)-2-(3-carbamoylphenyl)-1-(2H-tetrazol-5-yl)ethyl]pentanoic acid], the IC50 at IMP-1 amounted to 1600 nM; on NDM-1 it was 70 nM; on VIM-1, 5.9 nM. In assay [1], the “NDM1 EC30016 MITC95” value came to 9.4 µM. Besides, the “VIM1 KP599644 MITC95” value in assay [2] was 12.5 µM. Also, in assay [3], the “IMP1 SM5741 MITC95” value was found to be 37.5 µM.

As for `CCC[C@H](C(=O)O)[C@H](Cc1ccccc1C(N)=O)c1nnn[nH]1` [Example 47, (2S)-2-[(1S)-2-(2-carbamoylphenyl)-1-(1H-tetrazol-5-yl)ethyl]pentanoic acid], the values for the IC50 at IMP-1, on NDM-1 and on VIM-1 were 7200 nM, 120 nM and 73 nM, respectively. For the same compound, the “NDM1 EC30016 MITC95” value in assay [1] is 9.4 µM. Besides, in assay [2], the “VIM1 KP599644 MITC95” value is 37.5 µM. Further, the “IMP1 SM5741 MITC95” value in assay [3] was 200 µM.

For `CC(C)C[C@H](C(=O)O)[C@H](Cc1ccc(C(N)=O)cc1)c1nnn[nH]1` [Example 48, (2S)-2-[(1S)-2-(4-carbamoylphenyl)-1-(1H-tetrazol-5-yl)ethyl]-4-methylpentanoic acid], the concentration for half-maximal inhibition (IC50) was 130 nM on IMP-1, 43 nM on NDM-1 and 2.2 nM at VIM-1. Moreover, the “NDM1 EC30016 MITC95” value in assay [1] came to 6.2 µM. For the same compound, the “VIM1 KP599644 MITC95” value in assay [2] was 50 µM. Further, the “IMP1 SM5741 MITC95” value in assay [3] is 4.7 µM.

Turning to `CC(C)C[C@H](C(=O)O)[C@H](Cc1ccc(S(C)(=O)=O)cc1)c1nn[nH]n1` [Example 50, (S)-4-methyl-2-((S)-2-(4-(methylsulfonyl)phenyl)-1-(2H-tetrazol-5-yl)ethyl)pentanoic acid], the results for the IC50 on IMP-1, on NDM-1 and on VIM-1 were 100 nM, 47 nM and 6.6 nM, respectively. Further, in assay [1], the “NDM1 EC30016 MITC95” value came to 25 µM. Besides, in assay [2], the “VIM1 KP599644 MITC95” value is 50 µM. Besides, the “IMP1 SM5741 MITC95” value in assay [3] worked out at 6.2 µM.

Consider `CC(C)CC(C(=O)O)[C@H](Cc1ccc(S(C)(=O)=O)cc1)c1nn[nH]n1` (stereo partly drawn) [Example 51, CAN-4-methyl-2-((S)-2-(4-(methylsulfonyl)phenyl)-1-(2H-tetrazol-5-yl)ethyl)pentanoic acid], for which the 50% inhibitory concentration (IC50) turned out to be 540 nM at IMP-1, 180 nM on NDM-1 and 25 nM at VIM-1. For the same compound, the “NDM1 EC30016 MITC95” value in assay [1] is 75 µM. Besides, the “VIM1 KP599644 MITC95” value in assay [2] came to 150 µM. In assay [3], the “IMP1 SM5741 MITC95” value turned out to be 25 µM.

Turning to `CCC[C@H](C(=O)O)[C@H](Cc1ccc(C)cc1)c1nn[nH]n1` [Example 52, (S)-2-((S)-1-(2H-tetrazol-5-yl)-2-(p-tolyl)ethyl)pentanoic acid], the half-inhibitory concentration (IC50) at IMP-1 turned out to be 680 nM; at NDM-1, 87 nM; on VIM-1, 10 nM. Also, the “NDM1 EC30016 MITC95” value in assay [1] worked out at 18.8 µM. Also, the “VIM1 KP599644 MITC95” value in assay [2] was 25 µM. Also, in assay [3], the “IMP1 SM5741 MITC95” value is 18.8 µM.

Regarding `Cc1ccc(C[C@H](c2nn[nH]n2)[C@H](CC(C)C)C(=O)O)cc1` [Example 53, (S)-2-((S)-1-(2H-tetrazol-5-yl)-2-(p-tolyl)ethyl)-4-methylpentanoic acid], the IC50 was determined as 89 nM on IMP-1, 37 nM on NDM-1 and 5.8 nM at VIM-1. For the same compound, the “NDM1 EC30016 MITC95” value in assay [1] was determined as 18.8 µM. In addition, the “VIM1 KP599644 MITC95” value in assay [2] was 75 µM. Besides, the “IMP1 SM5741 MITC95” value in assay [3] was 4.7 µM.
